Test results as given in US11596642B2, “Therapeutic treatment of breast cancer based on c-MAF status” (INBIOMOTION S.L., priority 2016, dated 2023).

Tests used:
Type in all cases: in vivo, human
[1] = system: breast cancer; test: AZURE trial, retrospective MAF FISH stratification: time to bone metastasis (zoledronic acid arm vs control arm)
Text: (§1) The MAF FISH assay was produced by Kreatech for Inbiomotion based on KREATECH proprietary FISH technology. The probe set contains two probes: a MAF 16q23 probe plus a D16Z3 probe as control of chromosome 16 centromeric region. The assay was validated using a 16q23/D16Z3 probe (Inbiomotion) and Poseidon Tissue Digestion Kit from Kreatech. The scoring criteria were defined in a fact sheet and as follows: two FISH evaluable results per patient, and the highest value was selected. The scoring algorithm was as follows: 20 cells counted for target and centromere amplification, if the gene count is >2 and ≤3, then 50 cells were counted.
An overview of the AZURE clinical trial (Coleman et al N Eng J Med 2011; 365: 1396-1405 and AZURE Current Controlled Trials number, ISRCTN79831382 and ClinicalTrials.gov identifier NCT00072020) study design, whose patients were used to validate MAF, is provided in FIG. 2. MAF was validated in a retrospective analysis of the AZURE trial using patient tumor sample prospectively collected under regulatory compliant conditions. Out of the 3360 patients recruited, 1,769 donated tumor tissue (52.4%). There were 13 TMAs (tissue micro array) (150 patient samples each) (1,769 patients). There were 4 replicas of each TMA using different tissue cores (6,326 (4×patient)). One TMA had only 1 replica and two TMAs had three replicas. Based on the H&E analysis (hematoxilyin and eosin) (FIG. 3) (6,326): 3978 cores were evaluable (63%) and 2348 were nonevaluable.
For the FISH assay, there were 2,067 FISH evaluable cores (56%). […] 567 patients were nonevaluable by FISH in any of the 4 replicas (32%).
(§2) numerical and categorical (+/− cut-off>=2.5) variable; % of nucleic MAF amplified (MAF CN>2):numberical+categorical (cut-off TBD). For the IHC analysis: IHC H-Score: numerical+categorical (cut-off=200), IHC OD: numerical+categorical (cut-off tBD). The following clinical variables were analyzed: disease-free survival (DFS), invasive disease-free survival (IDFS), overall survival (OS), first recurrence in bone, bone recurrence at any time, time to first DFS event in bone, time to first DFS event not in bone, response to zoledronic acid treatment.
In analyzing the MAF FISH prognostic value, the patients from the control and treatment arms were pooled for the initial analysis. Optimized cut-offs for each variable to be analyzed were used when indicated. Death as a competing event was used in time to bone metastasis, anytime. The following clinical variables were analyzed: time to bone metastasis (anytime), time to bone metastasis (as first event), IDFS (including ipsilateral invasive breast tumor recurrence, regional invasive breast cancer recurrence, metastatic disease-breast cancer, death attributable to any cause, including breast cancer, contralateral invasive breast cancer, second primary non-breast invasive cancer), and overall survival.
The control and zoledronic acid treatment arms from the AZURE study described in Example 1 were evaluated to determine the effect of zoledronic acid treatment on MAF-stratified patients.

[2] = system: breast cancer; test: AZURE trial, MAF FISH stratification: invasive disease free survival (IDFS) / time to recurrence; details: MAF positive patients (>=2.2) in the zoledronic acid treatment arm; p<0.001, multivariate analysis
Text: as §1, with “counted. […]” for “counted.”
as §2, with “For the IHC analysis: IHC H-Score: numerical+categorical (cut-off=200), IHC OD: numerical+categorical (cut-off tBD).” left out
(§3) In analyzing the MAF FISH prognostic value, the patients from the control and treatment arms were pooled for the initial analysis. Optimized cut-offs for each variable to be analyzed were used when indicated. […]

[3] = system: breast cancer; test: AZURE trial, MAF FISH stratification: disease free survival (DFS); details: MAF negative post menopausal patients; zoledronic acid treatment; 95% CI 0.33-0.95
Text: as §1, with “counted. […]” for “counted.”
as §2, with “For the IHC analysis: IHC H-Score: numerical+categorical (cut-off=200), IHC OD: numerical+categorical (cut-off tBD).” left out
as §3

[4] = system: breast cancer; test: AZURE trial, MAF FISH stratification: overall survival (OS); details: MAF negative post menopausal patients; zoledronic acid treatment; 95% CI 0.31-1.01
Text: as §1, with “counted. […]” for “counted.”
as §2, with “For the IHC analysis: IHC H-Score: numerical+categorical (cut-off=200), IHC OD: numerical+categorical (cut-off tBD).” left out
as §3

SMILES: O=P(O)(O)C(O)(Cn1ccnc1)P(=O)(O)O [zoledronic acid]
- Hazard ratio (HR), risk of bone metastasis at any time ([1]; MAF FISH not positive patients, pre-specified cut off 2.5, zoledronic acid treatment vs control, death as competing event, p=0.03): 0.65
- Hazard ratio (HR), time to a bone metastatic event (anytime) ([1]; MAF non-positive non-post-menopausal patients, cut off 2.5, p=0.08): 0.66
- Hazard ratio (HR), time to a bone metastatic event (anytime) ([1]; MAF non-positive postmenopausal patients, cut off 2.5, limited number of events): 0.63
- Hazard ratio (HR), time to a bone metastatic event (anytime) ([1]; MAF positive non-post-menopausal patients, cut off 2.5, p=0.045): 2.44
- Hazard ratio (HR), risk of bone metastasis at any time ([1]; MAF positive patients, cut off 2.5, zoledronic acid treatment vs control, non-significant, p=0.22): 1.54
- Hazard ratio (HR), time to a bone metastatic event (anytime) ([1]; MAF positive postmenopausal patients (>2.5), treatment outcome, p=0.26, limited number of events): 0.46
- Hazard ratio (HR), risk of bone metastasis at any time ([1]; zoledronic acid arm, MAF FISH not positive (<2.3) compared to MAF FISH positive patients, p=0.01): 0.52
- Hazard ratio (HR), time to recurrence (invasive disease) [2]: 0.52
- Hazard ratio (HR), DFS outcome [3]: 0.56
- Hazard ratio (HR), overall survival outcome [4]: 0.56
